Positions count from the first letter of the chain named. “And” between values parts separate entries of the source, which are not always exact repeats. Equal entries are not always repeated.
Key:
Assay type in all cases: cell-based
Settings in all cases: individual replicates (S3 Fig)
[1] = target: T1, PfCRT^Dd2_M343L (Plasmodium falciparum, UniProt Q8IBZ9, A220S/I356T/K76T/M343L/M74I/N326S/N75E/Q271E/R371I); assay: Verapamil inhibition of PfCRT-mediated CQ and PPQ transport in oocytes, PfCRT^Dd2_M343L
T1 construct: expressed in transfected cells; host or cells: Xenopus laevis oocytes injected with in vitro transcribed RNA (pSP64T)
T1 sequence (Q8IBZ9 1-424 M74I/N75E/K76T/A220S/Q271E/N326S/M343L/I356T/R371I): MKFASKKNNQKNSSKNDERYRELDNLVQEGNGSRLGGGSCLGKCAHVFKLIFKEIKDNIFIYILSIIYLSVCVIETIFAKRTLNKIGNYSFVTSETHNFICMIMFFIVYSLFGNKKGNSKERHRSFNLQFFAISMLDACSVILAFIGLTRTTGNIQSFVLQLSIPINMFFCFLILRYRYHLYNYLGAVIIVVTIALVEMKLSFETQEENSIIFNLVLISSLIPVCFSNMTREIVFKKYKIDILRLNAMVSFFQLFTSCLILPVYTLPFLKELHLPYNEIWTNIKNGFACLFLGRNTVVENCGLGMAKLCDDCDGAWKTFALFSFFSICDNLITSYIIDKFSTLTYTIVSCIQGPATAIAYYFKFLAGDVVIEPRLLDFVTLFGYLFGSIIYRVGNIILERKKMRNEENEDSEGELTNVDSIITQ
Description: (§1) In all cases, the PfCRT-mediated CQ and PPQ transport was inhibited in the presence of 100 μM verapamil (S3 Fig).
(§2) Drug transport assays were performed as previously described. Briefly, measurements of radiolabeled drug uptake were made over 1 h, unless otherwise specified. […] Where specified, one or more unlabeled drugs were also present at the indicated concentrations. The direction of drug transport in the assays is from the extracellular medium (pH 6) into the oocyte cytosol (pH 7.2), which corresponds to the efflux of CQ or PPQ from the acidic digestive vacuole (pH 5.2) into the parasite cytosol (pH 7.2). The uptake assays were terminated by removing the oocytes from the reaction medium and washing them three times with 2 mL of ice-cold ND96 buffer. Each oocyte was transferred to a separate scintillation vial and lysed by the addition of 200 μL of a 5% SDS solution. The radioactivity in the sample was measured using a liquid scintillation analyser Tri-Carb 4910 TR (PerkinElmer). Water-injected oocytes were analyzed in parallel as a negative control. The buffer from each condition was measured in duplicate in parallel to each experiment to transform counts per minute into pmol of drug. Drug uptake attributable to PfCRT was determined by subtracting the background uptake from water-injected oocytes from that of PfCRT-expressing oocytes. In all cases, at least three independent experiments were performed on oocytes from different frogs, and for each condition in an experiment, measurements were made from 10 oocytes per treatment.
(§3) Supplementary file ppat.1011436.s006.tif: S3 Fig Verapamil inhibits PfCRT-mediated transport of CQ and PPQ. […] Left panels, data is shown as individual biological replicates (coloured symbols) overlaid onto bars representing the Mean ± S.E.M. (error bars). A one-tailed Student’s t-test was performed between untreated (no VP) and treated (+ 100 μM VP) samples, and the obtained p values are shown. Right panels, the uptake in VP-treated samples was divided by the uptake in their corresponding untreated pairs and subtracted from 100% to get the percentage of uptake inhibition mediated by the presence of 100 μM verapamil in the extracellular medium. Error bars are S.E. (TIF) Click here for additional data file.

[2] = target: T2, PfCRT^Dd2 (Plasmodium falciparum, UniProt Q8IBZ9, A220S/I356T/K76T/M74I/N326S/N75E/Q271E/R371I); assay: Verapamil inhibition of PfCRT-mediated CQ and PPQ transport in oocytes, PfCRT^Dd2; design: expressed in transfected cells; host or cells: Xenopus laevis oocytes injected with in vitro transcribed RNA (pSP64T)
T2 sequence (Q8IBZ9 1-424 M74I/N75E/K76T/A220S/Q271E/N326S/I356T/R371I): T1 sequence (Q8IBZ9 1-424 M74I/N75E/K76T/A220S/Q271E/N326S/M343L/I356T/R371I) with L343M
Description: as §1, §2, §3

[3] = target: T3, PfCRT^Dd2_H97Y (Plasmodium falciparum, UniProt Q8IBZ9, A220S/H97Y/I356T/K76T/M74I/N326S/N75E/Q271E/R371I); assay: Verapamil inhibition of PfCRT-mediated CQ and PPQ transport in oocytes, PfCRT^Dd2_H97Y
T3 construct: expressed in transfected cells; host or cells: Xenopus laevis oocytes injected with in vitro transcribed RNA (pSP64T)
T3 sequence (Q8IBZ9 1-424 M74I/N75E/K76T/H97Y/A220S/Q271E/N326S/I356T/R371I): T1 sequence (Q8IBZ9 1-424 M74I/N75E/K76T/A220S/Q271E/N326S/M343L/I356T/R371I) with H97Y, L343M
Description: as §1, §2, §3

[4] = target: T4, PfCRT^Dd2_G353V (Plasmodium falciparum, UniProt Q8IBZ9, A220S/G353V/I356T/K76T/M74I/N326S/N75E/Q271E/R371I); assay: Verapamil inhibition of PfCRT-mediated CQ and PPQ transport in oocytes, PfCRT^Dd2_G353V
T4 construct: expressed in transfected cells; host or cells: Xenopus laevis oocytes injected with in vitro transcribed RNA (pSP64T)
T4 sequence (Q8IBZ9 1-424 M74I/N75E/K76T/A220S/Q271E/N326S/G353V/I356T/R371I): T1 sequence (Q8IBZ9 1-424 M74I/N75E/K76T/A220S/Q271E/N326S/M343L/I356T/R371I) with L343M, G353V
Description: as §1, §2, §3

SMILES | PfCRTDd2_M343L-mediated CQ transport ([1]; 50 µM CQ + 100 µM VP) | PfCRTDd2_M343L-mediated CQ transport ([1]; 50 µM CQ) | PfCRTDd2-mediated CQ transport ([2]; 50 µM CQ + 100 µM VP) | PfCRTDd2-mediated CQ transport ([2]; 50 µM CQ) | PfCRTDd2_H97Y-mediated CQ transport ([3]; 50 µM CQ + 100 µM VP) | PfCRTDd2_H97Y-mediated CQ transport ([3]; 50 µM CQ) | PfCRTDd2_G353V-mediated CQ transport ([4]; 50 µM CQ + 100 µM VP) | PfCRTDd2_G353V-mediated CQ transport ([4]; 50 µM CQ) | PfCRTDd2_M343L-mediated PPQ transport ([1]; 50 µM PPQ + 100 µM VP) | PfCRTDd2-mediated PPQ transport ([2]; 50 µM PPQ + 100 µM VP) | PfCRTDd2-mediated PPQ transport ([2]; 50 µM PPQ) | PfCRTDd2_H97Y-mediated PPQ transport ([3]; 50 µM PPQ + 100 µM VP) | PfCRTDd2_G353V-mediated PPQ transport ([4]; 50 µM PPQ + 100 µM VP) | PfCRTDd2_G353V-mediated PPQ transport ([4]; 50 µM PPQ)
CCN(CC)CCCC(C)Nc1ccnc2cc(Cl)ccc12 (centres unmarked) [CQ, chloroquine] | 1.630 pmol oocyte-1 h-1 and 0.990 pmol oocyte-1 h-1 and 2.400 pmol oocyte-1 h-1 | 2.130 pmol oocyte-1 h-1 and 3.200 pmol oocyte-1 h-1 and 2.380 pmol oocyte-1 h-1 and 2.370 pmol oocyte-1 h-1 | 1.980 pmol oocyte-1 h-1 and 2.230 pmol oocyte-1 h-1 and 2.450 pmol oocyte-1 h-1 and 1.670 pmol oocyte-1 h-1 and 3.620 pmol oocyte-1 h-1 | 3.900 pmol oocyte-1 h-1 and 4.910 pmol oocyte-1 h-1 and 4.760 pmol oocyte-1 h-1 and 7.490 pmol oocyte-1 h-1 and 5.040 pmol oocyte-1 h-1 and 3.980 pmol oocyte-1 h-1 and 10.460 pmol oocyte-1 h-1 | 2.480 pmol oocyte-1 h-1 and 0.550 pmol oocyte-1 h-1 and 3.310 pmol oocyte-1 h-1 and 4.210 pmol oocyte-1 h-1 | 8.240 pmol oocyte-1 h-1 and 3.560 pmol oocyte-1 h-1 and 5.410 pmol oocyte-1 h-1 and 4.920 pmol oocyte-1 h-1 | 3.530 pmol oocyte-1 h-1 and 3.520 pmol oocyte-1 h-1 and 2.870 pmol oocyte-1 h-1 and 2.520 pmol oocyte-1 h-1 and 3.380 pmol oocyte-1 h-1 | 4.740 pmol oocyte-1 h-1 and 5.010 pmol oocyte-1 h-1 and 2.880 pmol oocyte-1 h-1 and 3.920 pmol oocyte-1 h-1 and 4.760 pmol oocyte-1 h-1 | – | – | – | – | – | –
Clc1ccc2c(N3CCN(CCCN4CCN(c5ccnc6cc(Cl)ccc56)CC4)CC3)ccnc2c1 [PPQ, piperaquine] | – | – | – | – | – | – | – | – | 22.37 pmol oocyte-1 h-1 and 37.53 pmol oocyte-1 h-1 and 41.81 pmol oocyte-1 h-1 and 17.67 pmol oocyte-1 h-1 | 5.44 pmol oocyte-1 h-1 and 8.16 pmol oocyte-1 h-1 and 20.06 pmol oocyte-1 h-1 and 36.26 pmol oocyte-1 h-1 and 13.97 pmol oocyte-1 h-1 | 28.14 pmol oocyte-1 h-1 and 21.87 pmol oocyte-1 h-1 and 89.78 pmol oocyte-1 h-1 and 46.28 pmol oocyte-1 h-1 and 30.01 pmol oocyte-1 h-1 and 33.33 pmol oocyte-1 h-1 | 18.33 pmol oocyte-1 h-1 and 31.33 pmol oocyte-1 h-1 and 27.94 pmol oocyte-1 h-1 and 23.86 pmol oocyte-1 h-1 | 18.21 pmol oocyte-1 h-1 and 25.90 pmol oocyte-1 h-1 and 37.78 pmol oocyte-1 h-1 and 29.33 pmol oocyte-1 h-1 and 30.34 pmol oocyte-1 h-1 | 29.38 pmol oocyte-1 h-1 and 45.38 pmol oocyte-1 h-1 and 21.36 pmol oocyte-1 h-1 and 40.00 pmol oocyte-1 h-1 and 56.34 pmol oocyte-1 h-1 and 56.46 pmol oocyte-1 h-1 and 95.52 pmol oocyte-1 h-1 and 62.83 pmol oocyte-1 h-1
